Data reported in patent US9334487B2, “Methods for diagnosing rheumatoid arthritis” (Imperial Innovations Limited, priority 2007, dated 2016).
Several values for one entry are separate records, joined by “and”; a condition that tells them apart may be missing. Equal values may be shown once. Entries after “also recorded” stand apart in the source; their conditions may differ. One block for each compound: values may come before it. Bridges are numbered along the chain shown (N, C = ends). Where no end group is shown, it is not given here. [ ]: non-standard residue; d: D form. Cit = NC(=O)NCCC[C@H](N)C(=O)O

Assays:
[1] = test system: serum IgG of RA patients, disease controls and healthy controls; assay: ELISA for IgG antibodies to cyclic α-enolase peptides, UK cohort sera; format: binding, human; conditions: for % positive, RA (n = 102): UK cohort RA sera; for % positive, RA (n = 102) / % positive, Disease controls (n = 110) / % positive, Healthy controls (n = 92): cut-off OD450 = 0.1
Source text: (§1) Serum samples were obtained with informed consent and ethical approval from 102 patients with RA and 92 (or 110 patients for the results generally shown in FIGS. 9 to 16) patients with other arthritidies (including systemic lupus erythematosus (n=32), Sjogrens syndrome (n=31), psoriatic arthritis (n=5), Behçet's syndrome (n=18; FIGS. 9 to 16) and miscellaneous other rheumatic diseases (n=24). 92 control serum samples were obtained from healthy volunteers. An additional cohort of 24 patients with RA undergoing treatment with either methotrexate (MTX) alone (n=13) or methotrexate in combination with Infliximab (INF) (n=11) were collected before treatment as well as 6, 18 and 52 weeks post treatment. Disease activity score (DAS 28), erythrocyte sedimentation rate (ESR) and C-reactive protein (CRP) were measured for each patient at the same time points, i.e. 0, 6, 18 an 52 weeks post treatment. All patients attended the Rheumatology Clinic at Charing Cross Hospital, London. An independent cohort from the US included serum samples from 81 RA patients, taken at baseline in a clinical trial at the Omaha Veterans Affairs Medical Centre, University of Nebraska, USA, and 82 serum samples from healthy volunteers. All RA patients met the American College of Rheumatology (ACR) classification criteria (43).
Fifteen cyclic 15 to 23-mer peptides were synthesised at Cambridge Research Biochemicals (Cleveland, UK). The peptide sequences corresponded to amino acid sequences in human α-enolase (SwissProt accession number P06733) or P. gingivalis enolase (SwissProt accession number AAQ66821), with the addition of cysteine residues at the amino- and carboxy-termini and the exchange of citrulline for arginine residues at certain positions, as shown in Tablet and Table 2 below.
(§2) 96-well plates (Maxisorp; Nunc, Roskilde, Denmark) were coated with α-enolase peptides at 10 μg/ml (diluted in a 50 mM carbonate buffer, pH 9.6), or with carbonate buffer alone, and incubated over night at 4° C. Wells were washed with PBS-Tween (0.05%) and blocked with 2% BSA (diluted in PBS) for 3 hours at room temperature. Sera were diluted 1:50 in RIA-buffer (10 mM Tris, 1% BSA, 350 mM NaCl, 1% Triton-X, 0.5% Na-deoxychlate, 0.1% SDS) supplemented with 10% FCS, added in duplicates and incubated for 1.5 hour at room temperature. Plates were washed as described above and incubated with peroxidase-conjugated mouse anti-human IgG (Hybridoma Reagent Laboratory, Baltimore, USA) (diluted 1:1000 in RIA-buffer, 10% FCS) for 1 hour at room temperature. After a final wash (PBS-Tween, 0.05%), bound antibodies were detected with TMB substrate (KPL, Maryland, USA). The reaction was stopped by the addition of 1M H2SO4 and absorbance measured at 450 nm in a Multiscan Ascent microplate reader (Thermo Labsystems). A control serum was included on all plates to correct for plate-to-plate variation. Background OD450 (wells coated with only carbonate buffer) was subtracted from peptide OD450 for every serum tested. Values above 0.1 were taken as positive. ELISA on the US serum samples were performed in a similar manner, but with 2% BSA in carbonate buffer as background, and with an OD cut-off of 0.2 for positive samples. Anti-CCP antibody status was analysed using the CCP2 kit (Eurodiagnostica, Malmo, Sweden), according to the manufacturer's instructions.

[2] = test system: serum antibodies of SLE patients; assay: ELISA of SLE patient sera on α-enolase peptides (Example 2); format: binding, human; conditions: 29 SLE patients; OD450 below 0.1 negative
Protocol: Sera from 29 patients diagnosed with systemic lupus erythromatosus (SLE) were tested by ELISA for reactivity with 11 citrullinated α-enolase peptides, namely Peptide 1A, 1B, 1D and Peptides 2 to 9 as shown in Table 1. The ELISA assay was as described in Example 1.
The quantity of antibody, from each patient sample, binding to each peptide, is reflected by the OD (450 nm) in the ELISA assay. The OD (450 nm) corresponding to the background (buffer only) was subtracted. The results, after subtraction of background, are depicted in FIG. 8A. All OD (450 nm) values below 0.1 were considered negative (=0).

[3] = test system: serum antibodies of RA patients and healthy controls; conditions: seven patients; cited from earlier work
[4] = test system: anti-Peptide 1A and anti-CCP antibodies in serum; assay: Serology over time in 24 RA patients treated with MTX or MTX+INF; format: binding, human
Source text: as §1, with “All patients attended the Rheumatology Clinic at Charing Cross Hospital, London. An independent cohort from the US included serum samples from 81 RA patients, taken at baseline in a clinical trial at the Omaha Veterans Affairs Medical Centre, University of Nebraska, USA, and 82 serum samples from healthy volunteers. All RA patients met the American College of Rheumatology (ACR) classification criteria (43).” left out
96-well plates (Maxisorp; Nunc, Roskilde, Denmark) were coated with α-enolase peptides at 10 μg/ml (diluted in a 50 mM carbonate buffer, pH 9.6), or with carbonate buffer alone, and incubated over night at 4° C. […] After a final wash (PBS-Tween, 0.05%), bound antibodies were detected with TMB substrate (KPL, Maryland, USA). The reaction was stopped by the addition of 1M H2SO4 and absorbance measured at 450 nm in a Multiscan Ascent microplate reader (Thermo Labsystems). […]

[5] = Disease activity score DAS28 (CRP and ESR) in treated RA patients; format: in vivo, human; conditions: 6, 18 and 52 weeks post treatment; MTX n=13, MTX+INF n=11
Source text: as §1

[6] = test system: anti-CEP-1 antibodies in anti-CEP-1 positive RA sera; assay: Liquid phase inhibition of binding to CEP-1-coated plates; parameters: species or system human; conditions: six anti-CEP-1 positive RA sera pre-incubated with 0, 1, 10 and 100 μg/ml peptide
Protocol: Inhibition experiments were performed in liquid phase on six anti-CEP-1 positive RA serum samples or on solid phase using serum from nine double positive (anti-CEP-1 and CCP positive) RA patients. Sera were either pre-incubated for 2 hours in RIA-buffer containing increasing concentrations (0, 1, 10 and 100 μg/ml) of CEP-1, control peptide 1D, peptide 4, peptide 7, peptide 9 or peptide 11, or pre-absorbed on plates coated with CEP-1, carbonate buffer alone or pre-absorbed on commercial CCP2 plates. To eliminate antigen-antibody complexes, the liquid phase mixtures were centrifuged at 13 000 rpm, for 15 minutes, before the supernatants were transferred to CEP-1-coated plates and assessed as described above Inhibition of binding to CEP-1, for serum samples pre-absorbed to CCP, was calculated in relation to the maximum inhibition, which by definition was set to 100% for samples pre-incubated with CEP-1.

[7] = test system: serum IgG of RA patients and healthy controls (US cohort); assay: anti-CEP-1 antibody ELISA, independent US cohort; format: binding, human
Source text: as §1
as §2, with “ELISA on the US serum samples were performed in a similar manner, but with 2% BSA in carbonate buffer as background, and with an OD cut-off of 0.2 for positive samples.” left out, “instructions. […]” for “instructions.”

[8] = test system: serum antibodies of RA patients and healthy controls grouped by CCP status; assay: ELISA for reactivity with CEP-1, Swedish EIRA cohort (Example 3); format: binding, human
Protocol: Sera from healthy controls and 511 rheumatoid arthritis patients from the Swedish EIRA (Epidemiological Investigation of Rheumatoid Arthritis) cohort (Stolt et al, Quantification of the influence of cigarette smoking on RA, Ann Rheum Dis, 2003; 62:835-841), were tested for antibodies to cyclic citrullinated peptides using the commercially available anti-CCP ELISA. At least 600 healthy controls were screened and, amongst these, a rare population that were CCP positive (n=16) were identified. Two of these CCP positive individuals have developed RA since the blood samples were collected.
Sera from the 511 rheumatoid arthritis patients, 16 CCP positive healthy controls and 126 CCP negative healthy controls were also screened by ELISA for reactivity with CEP-1 (Peptide 1A) as described in Example 1. The rheumatoid arthritis patients were divided into CCP positive (n=410) and CCP negative (n=101) groups.

[9] = cut-off 98th percentile of controls

Compound: non-citrullinated protein: whole non-citrullinated α-enolase protein
% of RA patients also recognizing the non-citrullinated protein [3]: 13%

Compound: CN(Cc1cnc2nc(N)nc(N)c2n1)c1ccc(C(=O)N[C@@H](CCC(=O)O)C(=O)O)cc1 [MTX, methotrexate]
anti-Peptide 1A antibody levels over time ([4]; pre-treatment, 6, 18 and 52 weeks, not statistically significant): increased
DAS28 (CRP and ESR) change [5]: did not result in such statistically significant decrease; also recorded: did not change significantly

Compound: ckiha-X-eifds-X-gnptvec (CKIHA[Cit]EIFDS[Cit]GNPTVEC; disulfide 1-19 (inferred); listed as Homo sapiens) [Peptide 1A]
% of healthy controls reactive ([1]; UK and US cohorts together): 2%
% positive, RA (n = 102) [1]: 37.3%
% positive, RA (n = 102) ([1]; listed as 1A(CEP-1)): 37%
% of anti-CCP negative RA patients positive ([1]; UK cohort, anti-CCP negative RA sera): 23%
% positive, non-RA patient controls (n=92) ([1]; UK cohort, smaller disease control group): 4.3%
% positive, Disease controls (n = 110) ([1]; UK cohort): 3%
% positive, Healthy controls (n = 92) ([1]; UK cohort): 2.2% and 2%
% positive, Healthy controls (n = 92) ([1]; UK cohort, listed as 1A(CEP-1)): 2%
specificity for RA ([1]; UK cohort, disease controls (92 or 110) and 92 healthy controls): 97%
anti-CEP-1 antibody status of patients with SLE and Behçet's disease ([1]; UK disease controls): uniformly negative
% of individuals without rheumatoid arthritis scored positive ([1]; summary statement): about 3% and ~2%
specificity, US cohort ([7]; 82 healthy controls, no disease controls): 98%
% RA patients positive / sensitivity, US cohort (n=81) [7, 9]: 62%
% healthy controls positive, US cohort (n=82) [7, 9]: 2%
% positive for anti-CEP-1 antibodies, CCP+ RA (n=410) ([8]; Swedish EIRA cohort): Sixty
% positive for anti-CEP-1 antibodies, CCP− RA (n=101) ([8]; Swedish EIRA cohort): 17%
% positive for anti-CEP-1 antibodies, CCP+ healthy controls (n=16) ([8]; Swedish cohort): 25%
% positive for anti-CEP-1 antibodies, CCP− healthy controls (n=126) ([8]; Swedish cohort): 0.8%
inhibition of antibody binding to CEP-1-coated plates [6]: dose dependent decrease; also recorded: dose-dependent inhibition
sensitivity at start of study ([4]; 24 RA patients, nine positive in each treatment group): 75%

More lines, main results first:

% positive, RA (n = 102) [1]: 12%
% positive, Disease controls (n = 110) ([1]; UK cohort): 5%
% positive, Healthy controls (n = 92) ([1]; UK cohort): 0%
Compound: cf-X-sgkydldfkspddps-X-yc (CF[Cit]SGKYDLDFKSPDDPS[Cit]YC; disulfide 1-21 (inferred); listed as Homo sapiens) [Peptide 6, human α-enolase aa 252-270]
% of SLE sera scored positive [2]: 3.4%

% positive, RA (n = 102) [1]: 4%
% positive, Disease controls (n = 110) ([1]; UK cohort): 2%
% positive, Healthy controls (n = 92) ([1]; UK cohort): 2%
Compound: cangwgvmvsh-X-sgetedtc (CANGWGVMVSH[Cit]SGETEDTC; disulfide 1-20 (inferred); listed as Homo sapiens) [Peptide 7, human α-enolase aa 362-379]
% of SLE sera scored positive [2]: 3.4%
inhibition of antibody binding to CEP-1-coated plates [6]: no inhibition
inhibition of antibody binding to CEP-1-coated plates ([6]; listed as peptide 7): did not result in decreased antibody binding
